# According to ChEMBL document CHEMBL1201862, “PubChem BioAssay data set” (2004):
# Activity calls are given as the source filed them.
# What was measured:
# [1] = target: DNA dC->dU-editing enzyme APOBEC-3A (Homo sapiens, UniProt P31941); assay: Dose Response confirmation of small molecule APOBEC3A DNA Deaminase Inhibitors via a fluorescence-based single-stranded DNA deaminase assay. [Related pubchem assays (depositor defined):AID493011, AID493024]; assay type: functional
# [2] = target: DNA dC->dU-editing enzyme APOBEC-3G (Homo sapiens, UniProt Q9HC16); assay type: functional;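 note: Dose-response counterscreen measuring inhibition of APOBEC3G DNA deaminase activity, run while confirming APOBEC3A inhibitors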
# DNA dC->dU-editing enzyme APOBEC-3G, sequence (Q9HC16 whole entry): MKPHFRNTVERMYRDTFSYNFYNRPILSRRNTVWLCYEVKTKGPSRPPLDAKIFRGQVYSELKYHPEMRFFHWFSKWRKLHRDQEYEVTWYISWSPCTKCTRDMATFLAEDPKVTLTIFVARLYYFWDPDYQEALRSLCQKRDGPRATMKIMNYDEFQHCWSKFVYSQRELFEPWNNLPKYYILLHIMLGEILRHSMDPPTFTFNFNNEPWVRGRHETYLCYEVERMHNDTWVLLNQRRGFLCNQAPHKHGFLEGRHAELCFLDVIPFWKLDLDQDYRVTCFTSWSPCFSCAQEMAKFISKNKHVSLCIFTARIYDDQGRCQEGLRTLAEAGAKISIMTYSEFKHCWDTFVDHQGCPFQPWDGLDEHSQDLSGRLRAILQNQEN
# [3] = target: Estrogen receptor beta (Homo sapiens, UniProt Q92731);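 note: recombinant ER-beta bound to coactivator SRC1 peptide in presence of estradiol agonist; inhibitors block coactivator peptide binding and lower the FRET signal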
# Estrogen receptor beta, sequence (Q92731 whole entry): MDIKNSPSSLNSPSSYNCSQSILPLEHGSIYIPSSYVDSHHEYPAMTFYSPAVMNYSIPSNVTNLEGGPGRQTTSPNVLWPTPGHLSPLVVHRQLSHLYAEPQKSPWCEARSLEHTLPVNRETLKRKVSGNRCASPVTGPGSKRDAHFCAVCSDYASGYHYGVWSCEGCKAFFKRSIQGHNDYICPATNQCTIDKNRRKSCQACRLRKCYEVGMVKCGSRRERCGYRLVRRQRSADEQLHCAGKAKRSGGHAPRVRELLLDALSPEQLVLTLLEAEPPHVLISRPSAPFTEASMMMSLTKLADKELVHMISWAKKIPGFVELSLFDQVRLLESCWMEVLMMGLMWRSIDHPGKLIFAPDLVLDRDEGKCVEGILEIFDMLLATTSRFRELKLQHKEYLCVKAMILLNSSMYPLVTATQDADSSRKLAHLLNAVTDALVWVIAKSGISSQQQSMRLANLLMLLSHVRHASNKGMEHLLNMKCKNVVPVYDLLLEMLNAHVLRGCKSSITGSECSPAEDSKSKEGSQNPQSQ
# [4] = target: T1, Estrogen receptor (Homo sapiens, UniProt P03372);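 note: potency for inhibiting coactivator peptide recruitment to the receptor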
# T1 sequence (P03372 whole entry): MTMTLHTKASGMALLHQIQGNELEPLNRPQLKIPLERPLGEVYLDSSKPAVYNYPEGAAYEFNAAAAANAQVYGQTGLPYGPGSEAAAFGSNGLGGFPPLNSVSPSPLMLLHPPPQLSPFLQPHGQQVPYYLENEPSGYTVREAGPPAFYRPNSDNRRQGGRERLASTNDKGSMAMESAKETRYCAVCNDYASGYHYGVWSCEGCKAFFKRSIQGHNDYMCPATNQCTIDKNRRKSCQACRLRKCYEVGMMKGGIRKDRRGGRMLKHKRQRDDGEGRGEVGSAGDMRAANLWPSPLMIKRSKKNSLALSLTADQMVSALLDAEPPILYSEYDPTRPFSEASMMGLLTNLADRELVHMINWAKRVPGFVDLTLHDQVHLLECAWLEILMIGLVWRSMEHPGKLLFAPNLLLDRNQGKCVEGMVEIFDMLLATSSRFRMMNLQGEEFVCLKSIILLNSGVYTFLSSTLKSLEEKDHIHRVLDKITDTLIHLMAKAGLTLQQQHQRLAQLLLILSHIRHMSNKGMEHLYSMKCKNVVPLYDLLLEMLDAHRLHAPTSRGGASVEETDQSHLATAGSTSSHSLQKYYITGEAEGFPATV
# [5] = target: Trypsin (Sus scrofa, UniProt P00761); assay: porcine trypsin inhibitors, dose response, selectivity assay for Rce1 protease inhibitor project, biochemical, quenched peptide fluorescence, cherry-pick (AID 488789)
# Trypsin, sequence (P00761 whole entry): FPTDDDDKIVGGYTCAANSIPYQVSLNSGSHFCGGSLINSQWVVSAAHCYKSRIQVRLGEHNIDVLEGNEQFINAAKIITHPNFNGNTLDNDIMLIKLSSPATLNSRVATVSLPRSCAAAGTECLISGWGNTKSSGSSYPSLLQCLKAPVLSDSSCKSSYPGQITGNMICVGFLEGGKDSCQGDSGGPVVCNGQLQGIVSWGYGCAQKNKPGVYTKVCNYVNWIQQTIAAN
# [6] = target: T2, Alkaline phosphatase, tissue-nonspecific isozyme (Homo sapiens, UniProt P05186); assay: human TNAP enzyme inhibitors, SAR follow-up, biochemical, luminescent, dose response (AID 1056)
# T2 sequence (P05186 whole entry): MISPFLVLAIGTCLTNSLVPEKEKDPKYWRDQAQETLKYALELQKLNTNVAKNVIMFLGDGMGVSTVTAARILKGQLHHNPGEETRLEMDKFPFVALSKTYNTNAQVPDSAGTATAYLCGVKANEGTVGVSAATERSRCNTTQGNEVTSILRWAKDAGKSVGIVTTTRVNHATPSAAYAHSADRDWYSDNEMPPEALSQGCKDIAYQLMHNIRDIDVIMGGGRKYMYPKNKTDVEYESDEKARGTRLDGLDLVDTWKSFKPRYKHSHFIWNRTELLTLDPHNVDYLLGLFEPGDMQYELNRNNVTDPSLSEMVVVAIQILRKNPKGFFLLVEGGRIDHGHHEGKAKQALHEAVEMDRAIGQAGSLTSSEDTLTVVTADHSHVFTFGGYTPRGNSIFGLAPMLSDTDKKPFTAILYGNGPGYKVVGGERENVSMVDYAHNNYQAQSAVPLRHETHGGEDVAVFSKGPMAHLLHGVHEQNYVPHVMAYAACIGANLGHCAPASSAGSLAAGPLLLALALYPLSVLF
# [7] = target: Glyceraldehyde-3-phosphate dehydrogenase (Homo sapiens, UniProt P04406)
# Glyceraldehyde-3-phosphate dehydrogenase, sequence (P04406 whole entry): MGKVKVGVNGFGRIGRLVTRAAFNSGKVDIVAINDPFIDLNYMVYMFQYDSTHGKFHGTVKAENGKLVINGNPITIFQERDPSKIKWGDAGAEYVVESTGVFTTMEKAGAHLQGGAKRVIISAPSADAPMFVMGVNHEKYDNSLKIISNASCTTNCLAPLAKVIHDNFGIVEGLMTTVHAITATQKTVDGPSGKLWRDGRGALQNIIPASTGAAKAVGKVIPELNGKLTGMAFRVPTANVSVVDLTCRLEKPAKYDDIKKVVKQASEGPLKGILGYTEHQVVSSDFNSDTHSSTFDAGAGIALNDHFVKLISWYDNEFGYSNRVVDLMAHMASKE
# [8] = target: Cytochrome P450 2C9 (Homo sapiens, UniProt P11712); conditions: Potency
# Cytochrome P450 2C9, sequence (P11712 whole entry): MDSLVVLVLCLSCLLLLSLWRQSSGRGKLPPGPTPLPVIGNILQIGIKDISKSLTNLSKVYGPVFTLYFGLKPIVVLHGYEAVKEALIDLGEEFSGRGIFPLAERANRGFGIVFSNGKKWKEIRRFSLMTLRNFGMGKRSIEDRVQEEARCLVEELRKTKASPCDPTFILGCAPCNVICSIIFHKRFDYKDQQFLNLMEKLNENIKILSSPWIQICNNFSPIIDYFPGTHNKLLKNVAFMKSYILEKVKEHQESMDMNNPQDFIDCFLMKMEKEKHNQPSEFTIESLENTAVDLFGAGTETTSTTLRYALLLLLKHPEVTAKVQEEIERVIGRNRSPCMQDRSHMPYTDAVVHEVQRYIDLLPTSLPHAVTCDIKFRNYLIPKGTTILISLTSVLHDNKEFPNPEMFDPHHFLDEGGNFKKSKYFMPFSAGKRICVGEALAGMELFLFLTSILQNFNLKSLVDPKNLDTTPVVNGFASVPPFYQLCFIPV
# [9] = target: T3, Aminopeptidase N (Plasmodium falciparum FcB1/Columbia, UniProt O96935); assay: P. falciparum M1AAP inhibitors, biochemical, fluorogenic H-Leu-NHMec substrate, 1536-well (AID 1445); design: species or system Plasmodium falciparum 3D7, 3D7
# T3 sequence (O96935 whole entry): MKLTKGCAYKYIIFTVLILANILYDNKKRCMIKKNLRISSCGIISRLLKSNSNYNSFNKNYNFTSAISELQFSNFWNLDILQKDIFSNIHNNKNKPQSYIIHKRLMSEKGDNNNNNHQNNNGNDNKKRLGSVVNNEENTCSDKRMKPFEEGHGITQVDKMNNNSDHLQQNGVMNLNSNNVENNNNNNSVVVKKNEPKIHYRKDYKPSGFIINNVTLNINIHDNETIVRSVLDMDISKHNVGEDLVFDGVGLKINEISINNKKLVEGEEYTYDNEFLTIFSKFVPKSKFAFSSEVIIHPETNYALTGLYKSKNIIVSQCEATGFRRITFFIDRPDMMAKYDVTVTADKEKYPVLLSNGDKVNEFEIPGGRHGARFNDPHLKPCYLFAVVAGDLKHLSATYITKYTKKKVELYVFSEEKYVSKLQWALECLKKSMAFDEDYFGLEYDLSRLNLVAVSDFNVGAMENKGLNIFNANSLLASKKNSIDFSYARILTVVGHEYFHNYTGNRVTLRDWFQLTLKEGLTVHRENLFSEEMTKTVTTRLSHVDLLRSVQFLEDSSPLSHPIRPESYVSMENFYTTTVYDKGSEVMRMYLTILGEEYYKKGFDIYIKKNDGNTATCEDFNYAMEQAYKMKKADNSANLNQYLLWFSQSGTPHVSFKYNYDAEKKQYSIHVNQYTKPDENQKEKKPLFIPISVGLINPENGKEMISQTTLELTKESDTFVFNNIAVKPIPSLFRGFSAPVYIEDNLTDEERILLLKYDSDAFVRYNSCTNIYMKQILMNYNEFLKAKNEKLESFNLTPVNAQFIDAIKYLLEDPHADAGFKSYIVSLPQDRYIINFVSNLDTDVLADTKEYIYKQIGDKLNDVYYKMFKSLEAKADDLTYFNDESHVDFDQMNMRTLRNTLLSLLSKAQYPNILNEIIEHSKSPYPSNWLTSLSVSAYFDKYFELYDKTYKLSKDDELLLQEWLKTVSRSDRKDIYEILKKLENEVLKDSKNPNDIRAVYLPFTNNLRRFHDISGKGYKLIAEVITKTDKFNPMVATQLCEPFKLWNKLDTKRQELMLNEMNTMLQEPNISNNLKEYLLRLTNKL
# [10] = target: T4, Heat shock factor protein 1 (Mus musculus, UniProt P38532); assay: HSF1 potentiators in luciferase reporter cells, confirmation, cell-based, NIH3T3, luminescence, dose retest (AID 435004); assay type: functional;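 note: stress induced by proteasome inhibitor MG132 added 30 min after compound; luciferase reporter driven by HSF1 response element in NIH3T3 cells; actives raise luminescence as potentiators of the MG132 stress response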
# T4 sequence (P38532 whole entry): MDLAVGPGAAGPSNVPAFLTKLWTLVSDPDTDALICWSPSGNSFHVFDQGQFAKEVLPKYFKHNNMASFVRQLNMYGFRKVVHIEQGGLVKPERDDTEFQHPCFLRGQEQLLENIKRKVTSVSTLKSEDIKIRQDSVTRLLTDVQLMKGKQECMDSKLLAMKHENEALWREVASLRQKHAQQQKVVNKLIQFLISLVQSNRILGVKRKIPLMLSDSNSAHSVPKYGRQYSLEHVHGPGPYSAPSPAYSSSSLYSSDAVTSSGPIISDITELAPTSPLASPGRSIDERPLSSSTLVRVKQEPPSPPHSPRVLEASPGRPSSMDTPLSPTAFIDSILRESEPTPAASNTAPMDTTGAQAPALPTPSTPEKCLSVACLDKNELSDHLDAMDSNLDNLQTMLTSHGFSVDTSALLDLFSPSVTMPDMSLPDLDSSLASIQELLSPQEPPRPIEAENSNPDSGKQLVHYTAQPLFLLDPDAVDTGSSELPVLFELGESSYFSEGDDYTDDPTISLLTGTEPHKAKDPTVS
# DNA dC->dU-editing enzyme APOBEC-3A, sequence (P31941 whole entry): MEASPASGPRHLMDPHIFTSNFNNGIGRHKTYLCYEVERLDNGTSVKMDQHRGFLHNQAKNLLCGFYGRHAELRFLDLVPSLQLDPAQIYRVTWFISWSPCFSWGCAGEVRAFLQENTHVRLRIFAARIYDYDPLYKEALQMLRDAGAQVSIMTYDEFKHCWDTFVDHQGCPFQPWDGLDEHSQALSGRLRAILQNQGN
compound,measurement,setting,value
CNC(=O)/C(C#N)=C\c1ccc(CNS(=O)(=O)c2ccc(Cl)cc2)o1,IC50,[1],3.02 µM (active)
same,IC50,[2],2.81 µM (active)
O=C(Cc1cccs1)Nc1ccccn1,IC50,[3],16.8 µM (active)
same,IC50,[4],13.4 µM (active)
Cc1cc2nn(-c3cccc4ccccc34)nc2cc1NC(=O)c1cccs1,AC50,[5],8.06 µM (active)
Cc1ccc(-c2ccc(C(=O)O)[nH]2)cc1,IC50,[6],> 100 µM (inactive)
same,IC50,[7],> 100 µM (not active)
CC(C)C[C@@H](CC(=O)N[C@@H](CCC(=O)O)CC(=O)O)NC(=O)[C@@H]1CCCC[C@H]1NC(=O)C[C@@H](NC(=O)C[C@H](CO)NC(=O)[C@@H]1CNCC[C@H]1N)C(C)C,AC50,[8],31.6 µM (inconclusive)
COc1ccc(-c2[nH]nc3c2C2(C(=O)N(CC(=O)O)c4ccccc42)C(C#N)=C(N)O3)cc1OC (stereo not drawn),IC50,[9],43.3 µM (active)
CC(C)C(CO)N1CCN(Cc2ccccc2)CCC1=O (stereo not drawn),IC50,[1],8.79 µM (active)
same,IC50,[2],10.1 µM (active)
CC(C)C[C@@H](CC(=O)N[C@@H](CCCN)CC(=O)N[C@@H]1CCNC[C@H]1C(=O)N[C@H](CC(=O)N[C@@H](CCC(=O)O)CC(=O)O)CC(C)C)NC(=O)[C@@H]1CNCC[C@H]1N,AC50,[8],39.8 µM (inconclusive)
Cc1ccc(S(=O)(=O)NNC(=O)c2sc3nc(C)cc(C)c3c2-n2cccc2)cc1,IC50,[9],26.9 µM (active)
same,EC50,[10],> 260 µM (inactive)
CC(C)C[C@@H](CC(=O)N[C@H](CC(=O)N[C@@H]1CCCC[C@H]1C(=O)N[C@H](CC(=O)N[C@@H](CCC(=O)O)CC(=O)O)Cc1ccccc1)C(C)C)NC(=O)[C@@H]1CNCC[C@H]1N,AC50,[8],31.6 µM (inconclusive)
O=C(O)COc1ccc(/C=N/n2c(COc3ccccc3)nc3ccccc3c2=O)cc1,IC50,[9],8.94 µM (active)
Cc1nc(-c2cccnc2)c[nH]1,IC50,[6],> 100 µM (inactive)
same,IC50,[7],> 100 µM (not active)
